Measurements published in PMC5218480 (PLoS ONE, 2017).

Tested on: MV-4-11 cells
Test: Gene expression microarray analysis (Affymetrix PrimeView) and GSEA
Assay type: cell-based, human
Parameters: RFU PODN (11730768_x_at) / Fold change /veh PODN (11730768_x_at) / RFU LINC00158 (11744669_a_at) / Fold change /veh LINC00158 (11744669_a_at) / RFU DUSP10 (11751237_a_at) / Fold change /veh DUSP10 (11751237_a_at) / RFU ID3 (11757404_x_at) / Fold change /veh ID3 (11757404_x_at) / RFU PLEKHG5 (11737974_s_at) / Fold change /veh PLEKHG5 (11737974_s_at) / RFU LRRC4B (11730491_at) / Fold change /veh LRRC4B (11730491_at) / RFU GIMAP4 (11747438_a_at) / Fold change /veh GIMAP4 (11747438_a_at) / RFU KRT8 (11758183_x_at) / Fold change /veh KRT8 (11758183_x_at) / RFU CNN1 (11734310_a_at) / Fold change /veh CNN1 (11734310_a_at) / RFU VPS37D (11726825_at) / Fold change /veh VPS37D (11726825_at) / RFU C10orf10 (11716522_x_at) / Fold change /veh C10orf10 (11716522_x_at) / RFU KIR2DL2 /// KIR2DL4 /// KIR2DL5A /// KIR2DL5B /// KIR2DS1 /// KIR2DS2 /// KIR2DS3 /// KIR2DS4 /// KIR3DL3 /// KIR3DL3 /// KIR3DS1 (11738374_at) / Fold change /veh KIR2DL2 /// KIR2DL4 /// KIR2DL5A /// KIR2DL5B /// KIR2DS1 /// KIR2DS2 /// KIR2DS3 /// KIR2DS4 /// KIR3DL3 /// KIR3DL3 /// KIR3DS1 (11738374_at) / RFU C1QL1 (11718748_at) / Fold change /veh C1QL1 (11718748_at) / RFU TMPRSS4 (11747572_a_at) / Fold change /veh TMPRSS4 (11747572_a_at) / RFU HAMP (11756126_x_at) / Fold change /veh HAMP (11756126_x_at) / RFU RNFT2 (11725882_a_at) / Fold change /veh RNFT2 (11725882_a_at) / RFU NR4A2 (11747474_a_at) / Fold change /veh NR4A2 (11747474_a_at) / RFU ABCC12 (11746883_a_at) / Fold change /veh ABCC12 (11746883_a_at) / RFU TMEM136 (11760407_x_at) / Fold change /veh TMEM136 (11760407_x_at) / RFU CLDN22 /// WWC2 (11732394_at) / Fold change /veh CLDN22 /// WWC2 (11732394_at) / RFU HLA-DPB1 (11760878_x_at) / Fold change /veh HLA-DPB1 (11760878_x_at) / RFU SPINT1 (11716480_a_at) / Fold change /veh SPINT1 (11716480_a_at) / RFU GAP43 (11754022_s_at) / Fold change /veh GAP43 (11754022_s_at) / RFU A4GNT (11735810_at) / Fold change /veh A4GNT (11735810_at) / RFU PRB3 (11715151_x_at) / Fold change /veh PRB3 (11715151_x_at) / RFU TUBB4B (11761932_at) / Fold change /veh TUBB4B (11761932_at) / RFU CAPN14 (11732068_a_at) / Fold change /veh CAPN14 (11732068_a_at) / RFU TMCC2 (11721928_a_at) / Fold change /veh TMCC2 (11721928_a_at) / RFU IRGQ (11745062_a_at) / Fold change /veh IRGQ (11745062_a_at) / RFU FAM174B (11720279_a_at) / Fold change /veh FAM174B (11720279_a_at) / RFU TMPRSS4 (11748680_a_at) / Fold change /veh TMPRSS4 (11748680_a_at) / RFU FAM212B (11763350_a_at) / Fold change /veh FAM212B (11763350_a_at) / RFU PLEKHG5 (11743358_a_at) / Fold change /veh PLEKHG5 (11743358_a_at) / RFU ZSCAN30 (11745921_a_at) / Fold change /veh ZSCAN30 (11745921_a_at) / RFU CMKLR1 (11741424_a_at) / Fold change /veh CMKLR1 (11741424_a_at) / RFU LOC101060620 /// MAPK8IP1 (11723275_at) / Fold change /veh LOC101060620 /// MAPK8IP1 (11723275_at) / RFU SPTSSB (11747773_x_at) / Fold change /veh SPTSSB (11747773_x_at) / RFU PRSS12 (11739890_at) / Fold change /veh PRSS12 (11739890_at) / RFU BIN1 (11741810_x_at) / Fold change /veh BIN1 (11741810_x_at) / RFU WNT11 (11732464_a_at) / Fold change /veh WNT11 (11732464_a_at) / RFU C10orf10 (11716521_a_at) / Fold change /veh C10orf10 (11716521_a_at) / RFU C5orf56 (11738089_at) / Fold change /veh C5orf56 (11738089_at) / RFU CYB561 (11721691_x_at) / Fold change /veh CYB561 (11721691_x_at) / RFU ANKRD19P (11752326_a_at) / Fold change /veh ANKRD19P (11752326_a_at) / RFU OR2T12 /// OR2T33 /// OR2T8 (11738714_s_at) / Fold change /veh OR2T12 /// OR2T33 /// OR2T8 (11738714_s_at) / RFU VCAN (11748164_a_at) / Fold change /veh VCAN (11748164_a_at) / RFU JSRP1 (11732532_at) / Fold change /veh JSRP1 (11732532_at) / RFU KRTAP10-11 (11738290_x_at) / Fold change /veh KRTAP10-11 (11738290_x_at) / RFU MYO3A (11730013_a_at) / Fold change /veh MYO3A (11730013_a_at) / RFU EBF3 (11725865_a_at) / Fold change /veh EBF3 (11725865_a_at) / RFU CAMK2N1 (11719241_x_at) / Fold change /veh CAMK2N1 (11719241_x_at) / RFU C5orf56 (11738088_a_at) / Fold change /veh C5orf56 (11738088_a_at) / RFU OLFML3 (11715873_a_at) / Fold change /veh OLFML3 (11715873_a_at) / RFU LOC100653217 /// NTM (11731650_a_at) / Fold change /veh LOC100653217 /// NTM (11731650_a_at) / RFU MAPK11 (11762145_a_at) / Fold change /veh MAPK11 (11762145_a_at) / RFU FIZ1 (11724087_x_at) / Fold change /veh FIZ1 (11724087_x_at) / RFU OASL (11726364_x_at) / Fold change /veh OASL (11726364_x_at) / RFU SOX15 (11748057_x_at) / Fold change /veh SOX15 (11748057_x_at) / RFU CD79A (11719716_a_at) / Fold change /veh CD79A (11719716_a_at) / RFU HIST1H1D (11736915_at) / Fold change /veh HIST1H1D (11736915_at) / RFU CASKIN2 (11723855_a_at) / Fold change /veh CASKIN2 (11723855_a_at) / RFU LOC730098 (11760151_x_at) / Fold change /veh LOC730098 (11760151_x_at) / RFU OR4N2 (11742367_at) / Fold change /veh OR4N2 (11742367_at) / RFU PRRT2 (11749266_a_at) / Fold change /veh PRRT2 (11749266_a_at) / RFU SNX32 (11753110_a_at) / Fold change /veh SNX32 (11753110_a_at) / RFU CDHR5 (11726645_a_at) / Fold change /veh CDHR5 (11726645_a_at) / RFU RCAN1 (11760418_a_at) / Fold change /veh RCAN1 (11760418_a_at) / RFU FAM167A (11723789_a_at) / Fold change /veh FAM167A (11723789_a_at) / RFU FAM26E (11764081_at) / Fold change /veh FAM26E (11764081_at) / RFU ISYNA1 (11749810_s_at) / Fold change /veh ISYNA1 (11749810_s_at) / RFU ACY1 (11761880_at) / Fold change /veh ACY1 (11761880_at) / RFU 11764098_at / Fold change /veh 11764098_at / RFU SAMD14 (11745864_x_at) / Fold change /veh SAMD14 (11745864_x_at) / RFU NPB (11741838_a_at) / Fold change /veh NPB (11741838_a_at) / RFU TMPRSS6 (11731388_a_at) / Fold change /veh TMPRSS6 (11731388_a_at) / RFU KRTAP10-2 (11738614_at) / Fold change /veh KRTAP10-2 (11738614_at) / RFU ARHGAP8 /// PRR5-ARHGAP8 (11727945_x_at) / Fold change /veh ARHGAP8 /// PRR5-ARHGAP8 (11727945_x_at) / RFU KRTAP5-7 /// NADSYN1 (11734609_at) / Fold change /veh KRTAP5-7 /// NADSYN1 (11734609_at) / RFU RASL12 (11751679_a_at) / Fold change /veh RASL12 (11751679_a_at) / RFU CDKN2B (11736163_a_at) / Fold change /veh CDKN2B (11736163_a_at) / RFU PRF1 (11729649_at) / Fold change /veh PRF1 (11729649_at) / RFU, ZNF638 /// ZNF638-IT1 / Fold change vs veh, ZNF638 /// ZNF638-IT1 / RFU, PANK3 / Fold change vs veh, PANK3 / RFU, SH3YL1 / Fold change vs veh, SH3YL1 / RFU, ZEB2 / Fold change vs veh, ZEB2 / RFU, NRIP1 / Fold change vs veh, NRIP1 / RFU, PTTG1IP / Fold change vs veh, PTTG1IP / RFU, CAPN2 / Fold change vs veh, CAPN2 / RFU, MED14 / Fold change vs veh, MED14 / RFU, SNORA58 / Fold change vs veh, SNORA58 / RFU, C1orf63 / Fold change vs veh, C1orf63 / RFU, LRRFIP1 / Fold change vs veh, LRRFIP1 / RFU, NDUFAF7 / Fold change vs veh, NDUFAF7 / RFU, SLC12A2 / Fold change vs veh, SLC12A2 / RFU, IBTK / Fold change vs veh, IBTK / RFU, ESF1 / Fold change vs veh, ESF1 / Fold change vs veh, TMEM50B / RFU, TAOK1 / Fold change vs veh, TAOK1 / RFU, ACBD3 / Fold change vs veh, ACBD3 / RFU, TMA16 / Fold change vs veh, TMA16 / RFU, RWDD3 / Fold change vs veh, RWDD3 / RFU, BCAT1 / Fold change vs veh, BCAT1 / RFU, EDEM3 / Fold change vs veh, EDEM3 / RFU, TMEM33 / Fold change vs veh, TMEM33 / RFU, WDR75 / Fold change vs veh, WDR75 / RFU, AHCTF1 / Fold change vs veh, AHCTF1 / RFU, TFRC / Fold change vs veh, TFRC / RFU, ZDHHC17 / Fold change vs veh, ZDHHC17 / RFU, NOM1 / Fold change vs veh, NOM1 / RFU, ARL8B / Fold change vs veh, ARL8B / RFU, ZBTB11 / Fold change vs veh, ZBTB11 / RFU, TAMM41 / Fold change vs veh, TAMM41 / RFU, KIAA1704 /// LOC100996395 / Fold change vs veh, KIAA1704 /// LOC100996395 / RFU, ING1 / Fold change vs veh, ING1 / RFU, TRMT61B / Fold change vs veh, TRMT61B / RFU, FUBP3 / Fold change vs veh, FUBP3 / RFU, TP53 / Fold change vs veh, TP53 / RFU, TNKS2 / Fold change vs veh, TNKS2 / RFU, ZFP14 / Fold change vs veh, ZFP14 / RFU, ACTR2 / Fold change vs veh, ACTR2 / RFU, PPP3R1 / Fold change vs veh, PPP3R1 / RFU, PIK3R1 / Fold change vs veh, PIK3R1 / RFU, HNRNPA1 / Fold change vs veh, HNRNPA1 / RFU, RNF170 / Fold change vs veh, RNF170 / RFU, ZNF28 / Fold change vs veh, ZNF28 / RFU, RNGTT / Fold change vs veh, RNGTT / RFU, OGT / Fold change vs veh, OGT / RFU, BRD1 / Fold change vs veh, BRD1 / RFU, MARS / Fold change vs veh, MARS / RFU, ZNF655 / Fold change vs veh, ZNF655 / RFU, FAHD1 / Fold change vs veh, FAHD1 / RFU, BDP1 / Fold change vs veh, BDP1 / RFU, LRRCC1 / Fold change vs veh, LRRCC1 / RFU, ARID1A / Fold change vs veh, ARID1A / RFU, ZNF146 / Fold change vs veh, ZNF146 / RFU, ZNF330 / Fold change vs veh, ZNF330 / RFU, GPN3 / Fold change vs veh, GPN3 / RFU, C9orf123 / Fold change vs veh, C9orf123 / RFU, N4BP2L2 / Fold change vs veh, N4BP2L2 / RFU, ARFIP1 / Fold change vs veh, ARFIP1 / RFU, FAM179B / Fold change vs veh, FAM179B / RFU, BCL10 / Fold change vs veh, BCL10 / RFU, UHRF1BP1L / Fold change vs veh, UHRF1BP1L / RFU, BET1 / Fold change vs veh, BET1 / RFU, CNOT2 / Fold change vs veh, CNOT2 / RFU, ZNF268 / Fold change vs veh, ZNF268 / Fold change vs veh, ZNF507 / RFU, DGCR2 / Fold change vs veh, DGCR2 / RFU, WDSUB1 / Fold change vs veh, WDSUB1 / Fold change vs veh, HSP90B1 /// MIR3652 / RFU, ADSS / Fold change vs veh, ADSS / RFU, GK / Fold change vs veh, GK / RFU, ZNF148 / Fold change vs veh, ZNF148 / RFU, TAF9 / Fold change vs veh, TAF9 / RFU, SLC1A5 / Fold change vs veh, SLC1A5 / RFU, SLMO2 / Fold change vs veh, SLMO2 / RFU, ABCC4 / Fold change vs veh, ABCC4 / RFU, LOC101060439 /// RAP1B / Fold change vs veh, LOC101060439 /// RAP1B / RFU, RFX7 / Fold change vs veh, RFX7 / RFU, GTPBP10 / Fold change vs veh, GTPBP10 / RFU, CNEP1R1 / Fold change vs veh, CNEP1R1 / RFU, BIVM-ERCC5 /// ERCC5 / Fold change vs veh, BIVM-ERCC5 /// ERCC5 / RFU, ILF3 / Fold change vs veh, ILF3 / RFU 11762660_at / Fold change /veh 11762660_at / RFU VCAN (11757783_s_at) / Fold change /veh VCAN (11757783_s_at) / RFU DDX43 (11728927_at) / Fold change /veh DDX43 (11728927_at) / RFU KRT8 (11758188_x_at) / Fold change /veh KRT8 (11758188_x_at) / RFU NKD1 (11759106_at) / Fold change /veh NKD1 (11759106_at) / RFU SRD5A1 (11742802_a_at) / Fold change /veh SRD5A1 (11742802_a_at) / RFU TPSAB1 /// TPSB2 (11721975_s_at) / Fold change /veh TPSAB1 /// TPSB2 (11721975_s_at) / RFU GSTM3 (11746129_a_at) / Fold change /veh GSTM3 (11746129_a_at) / RFU IL23R (11737362_x_at) / Fold change /veh IL23R (11737362_x_at) / RFU TMEM51 (11727254_a_at) / Fold change /veh TMEM51 (11727254_a_at) / RFU PIWIL2 (11732686_x_at) / Fold change /veh PIWIL2 (11732686_x_at) / RFU ORM1 (11744905_x_at) / Fold change /veh ORM1 (11744905_x_at) / RFU CCDC152 (11743942_at) / Fold change /veh CCDC152 (11743942_at) / RFU ECM1 (11717891_a_at) / Fold change /veh ECM1 (11717891_a_at) / RFU IL23R (11748794_a_at) / Fold change /veh IL23R (11748794_a_at) / RFU TNFAIP8L3 (11732012_x_at) / Fold change /veh TNFAIP8L3 (11732012_x_at) / RFU MBOAT4 (11741988_at) / Fold change /veh MBOAT4 (11741988_at) / RFU 11764193_at / Fold change /veh 11764193_at / RFU TMEM53 (11763286_at) / Fold change /veh TMEM53 (11763286_at) / RFU MAGEB2 (11727129_at) / Fold change /veh MAGEB2 (11727129_at) / RFU TMEM200A (11744735_a_at) / Fold change /veh TMEM200A (11744735_a_at) / RFU CCDC152 (11751479_a_at) / Fold change /veh CCDC152 (11751479_a_at) / RFU FAM211A (11726209_a_at) / Fold change /veh FAM211A (11726209_a_at) / RFU RGS16 (11746705_a_at) / Fold change /veh RGS16 (11746705_a_at) / RFU VCAN (11755009_s_at) / Fold change /veh VCAN (11755009_s_at) / RFU RHOB (11743442_s_at) / Fold change /veh RHOB (11743442_s_at) / RFU RGS16 (11720943_a_at) / Fold change /veh RGS16 (11720943_a_at) / RFU RGS16 (11720944_at) / Fold change /veh RGS16 (11720944_at) / RFU, VPS4B / Fold change vs veh, VPS4B / RFU, CREB1 / Fold change vs veh, CREB1 / RFU, DNAJC13 / Fold change vs veh, DNAJC13 / RFU, GNAQ / Fold change vs veh, GNAQ / RFU, CDK5R1 / Fold change vs veh, CDK5R1 / RFU, ZRANB3 / Fold change vs veh, ZRANB3 / RFU, CUL4A / Fold change vs veh, CUL4A / RFU, CCNY / Fold change vs veh, CCNY / RFU, UFL1 / Fold change vs veh, UFL1 / RFU, COG3 / Fold change vs veh, COG3 / RFU, DIAPH2 / Fold change vs veh, DIAPH2 / RFU, SKA2 / Fold change vs veh, SKA2 / RFU, AFF3 / Fold change vs veh, AFF3 / RFU, LMF1 / Fold change vs veh, LMF1 / RFU, IPO11 / Fold change vs veh, IPO11 / RFU, DFFB / Fold change vs veh, DFFB / RFU, FOXP1 / Fold change vs veh, FOXP1 / RFU, CARD8 / Fold change vs veh, CARD8 / RFU, STRN3 / Fold change vs veh, STRN3 / RFU, ADK / Fold change vs veh, ADK / RFU, RASSF2 / Fold change vs veh, RASSF2 / RFU, WIPF1 / Fold change vs veh, WIPF1 / RFU, LARP1B / Fold change vs veh, LARP1B / RFU, RASA1 / Fold change vs veh, RASA1 / RFU, RB1 / Fold change vs veh, RB1 / RFU, PPFIA1 / Fold change vs veh, PPFIA1 / RFU, MAT2A / Fold change vs veh, MAT2A / RFU, CCT5 / Fold change vs veh, CCT5 / RFU, WDR92 / Fold change vs veh, WDR92 / RFU, CUX1 / Fold change vs veh, CUX1 / RFU, TTC7A / Fold change vs veh, TTC7A / RFU, TMEM135 / Fold change vs veh, TMEM135 / RFU, DEPTOR / Fold change vs veh, DEPTOR / RFU, CPM / Fold change vs veh, CPM / RFU, DNAJB6 / Fold change vs veh, DNAJB6 / RFU, CACNA2D3 / Fold change vs veh, CACNA2D3 / RFU, DTX4 / Fold change vs veh, DTX4 / RFU, TFCP2 / Fold change vs veh, TFCP2 / RFU, GMCL1 /// GMCL1P1 / Fold change vs veh, GMCL1 /// GMCL1P1 / RFU, AEBP2 / Fold change vs veh, AEBP2 / RFU, SNHG1 /// SNORD22 /// SNORD25 /// SNORD26 /// SNORD27 /// SNORD28 /// SNORD29 /// SNORD31 / Fold change vs veh, SNHG1 /// SNORD22 /// SNORD25 /// SNORD26 /// SNORD27 /// SNORD28 /// SNORD29 /// SNORD31 / Fold change (Aza/veh), C12orf56 (ProbeSet 11735607_a_at) / Fold change (ACY-1035/veh), C12orf56 (ProbeSet 11735607_a_at) / Fold change (Aza/veh), FGFR1OP (ProbeSet 11751329_s_at) / Fold change (ACY-1035/veh), FGFR1OP (ProbeSet 11751329_s_at) / Fold change (Aza/veh), VPS36 (ProbeSet 11739960_a_at) / Fold change (ACY-1035/veh), VPS36 (ProbeSet 11739960_a_at) / RFU SYPL1 (11715823_x_at) / Fold change /veh SYPL1 (11715823_x_at) / RFU IGFBP7 (11715501_s_at) / Fold change /veh IGFBP7 (11715501_s_at) / RFU REEP3 (11722064_at) / Fold change /veh REEP3 (11722064_at) / RFU IGLL1 (11728026_x_at) / Fold change /veh IGLL1 (11728026_x_at): dose or concentration left out as unconfirmed
Conditions: ProbeSet 11730501_a_at; LIST D

Nc1ccc(-c2cccs2)cc1NC(=O)c1ccc2c(c1)cc(C1CC1)n2CCN1CCOCC1 [ACY-1035]
Fold change vs veh, CACNA2D3: 1.05
